Assay results reported in patent US8518973B2, “Compounds having 4-pyridylalkylthio group as a substituent” (Santen Pharmaceutical Co., Ltd., priority 2003, dated 2013).

The compounds below were run on VEGF-induced HUVEC growth (assay: VEGF-induced HUVEC growth reaction evaluation system (cell growth inhibitory action test)). Details: Homo sapiens, 72 h, 20 μg/ml test compound solution added 5 μl per well (100 μl), VEGF solution 400 ng/ml 5 μl per well, three days, absorbance at 450 nm, read-out: Cell growth inhibition rate (%).
Assay type: cell-based
Protocol: Cell growth inhibitory action tests were carried out using a VEGF-induced HUVEC growth reaction evaluation system (HUVEC stands for human umbilical vein endothelial cells), which is one of widely-used methods of evaluating in vitro angiogenesis inhibitory effects of drugs.
As one of widely-used methods of evaluating angiogenesis inhibitory effects of drugs, a cell growth inhibitory action test using a VEGF-induced HUVEC growth reaction evaluation system was reported in Cancer Res., 59, 99-106(1999). According to the method described in the above-mentioned literature, cell growth inhibitory action tests of the present compounds were carried out, their cell growth inhibition rates were calculated, and angiogenesis inhibitory effects of the present compounds were evaluated using the obtained rates as indexes.
Each test compound was dissolved in dimethyl sulfoxide (hereinafter abbreviated as “DMSO”), and the obtained solution was diluted with commercially available phosphoric acid buffer solution (hereinafter abbreviated as “PBS”) to prepare a 20 μg/ml test compound solution.
HUVEC was suspended in a 0.5% fetal bovine serum (hereinafter abbreviated as “FBS”)-containing F12K medium to prepare a 2×10^4 cells/ml HUVEC suspension.
VEGF was dissolved in 0.1% bovine serum albumin-containing PBS, and the obtained solution was diluted with the 0.5% FBS-containing F12K medium to prepare a 400 ng/ml VEGF solution.
• 1) The HUVEC suspension was inoculated in each amount of 100 μl into each well of a 96-well plate coated with I type collagen (2×10^3 cells per well). • 2) One day after inoculation, the test compound solution was added in an amount of 5 μl per well. • 3) One hour after adding the test compound solution, the VEGF solution was added in an amount of 5 μl per well. • 4) Three days after adding the VEGF solution, cell counting kit-8(Dojin Chemical Co., Ltd.) was added in an amount of 10 μl per well. • 5) After three hours, the above-mentioned plate was attached to an absorptiometer (multi label counter ARVO), and absorbance at 450 nm of each well suspension (hereinafter referred to as “test compound suspension”) was measured. • 6) A test was carried out in the same manner as in 1) to 5) except that 1.0% DMSO was used instead of the test compound solution.
Incubation was carried out under conditions of 37° C., 5% carbon dioxide and 95% air in an incubator throughout the above-mentioned test steps.
Cell growth inhibition rates, which are indexes of angiogenesis inhibitory effects, were calculated by the following calculation equation.
`O=C(Nc1cnc2ccccc2c1)c1cccnc1SCc1ccncc1` [1-20, 2-(4-Pyridylmethylthio)-N-(3-quinolyl)pyridine-3-carboxamide] showed an inhibition at 20 µg/mL (stock) of 100%.
In the case of `CC(C)c1cccc(NC(=O)c2cccnc2SCc2ccncc2)c1` [1-35, N-(3-Isopropylphenyl)-2-(4-pyridylmethylthio)pyridine-3-carboxamide], the inhibition at 20 µg/mL (stock) is reported as 100%.
Work on `CCCc1ccc(NC(=O)c2cccnc2SCc2ccncc2)cc1` [1-49, N-(4-n-Propylphenyl)-2-(4-pyridylmethylthio)pyridine-3-carboxamide] yielded an inhibition at 20 µg/mL (stock) of 100%.
`CCCCc1ccc(NC(=O)c2cccnc2SCc2ccncc2)cc1` [1-50, N-(4-n-Butylphenyl)-2-(4-pyridylmethylthio)pyridine-3-carboxamide] gave an inhibition at 20 µg/mL (stock) of 94%.
With `CC(C)Oc1ccc(NC(=O)c2cccnc2SCc2ccncc2)cc1` [1-55, N-(4-Isopropoxyphenyl)-2-(4-pyridylmethylthio)pyridine-3-carboxamide] the inhibition at 20 µg/mL (stock) was 100%.
`CCOC(=O)Cc1ccc(NC(=O)c2cccnc2SCc2ccncc2)cc1` [1-61, N-(4-Ethoxycarbonylmethylphenyl)-2-(4-pyridylmethylthio)pyridine-3-carboxamide] gave an inhibition at 20 µg/mL (stock) of 65%.
Compound `CN(C)c1ccc(NC(=O)c2cccnc2SCc2ccncc2)cc1` [1-64, N-(4-Dimethylaminophenyl)-2-(4-pyridylmethylthio)pyridine-3-carboxamide] has an inhibition at 20 µg/mL (stock) of 100%.
`O=C(Nc1ccc(Cl)cc1F)c1cccnc1SCc1ccncc1` [1-69, N-(4-Chloro-2-fluorophenyl)-2-(4-pyridylmethylthio)pyridine-3-carboxamide] was tested, and the inhibition at 20 µg/mL (stock) was 95%.
In the case of `O=C(Nc1ccc(F)cc1F)c1cccnc1SCc1ccncc1` [1-70, N-(2,4-Difluorophenyl)-2-(4-pyridylmethylthio)pyridine-3-carboxamide], the inhibition at 20 µg/mL (stock) is reported as 58%.
In the case of `COc1ccc(NC(=O)c2cccnc2SCc2ccncc2)cc1OC` [1-72, N-(3,4-Dimethoxyphenyl)-2-(4-pyridylmethylthio)pyridine-3-carboxamide], the inhibition at 20 µg/mL (stock) is reported as 100%.
`O=C(Nc1ccc(Cl)c(C(F)(F)F)c1)c1cccnc1SCc1ccncc1` [1-74, N-(4-Chloro-3-trifluoromethylphenyl)-2-(4-pyridylmethylthio)pyridine-3-carboxamide] was tested, and the inhibition at 20 µg/mL (stock) was 100%.
`O=C(Nc1ccc(F)c(Cl)c1)c1cccnc1SCc1ccncc1` [1-75, N-(3-Chloro-4-fluorophenyl)-2-(4-pyridylmethylthio)pyridine-3-carboxamide] was tested, and the inhibition at 20 µg/mL (stock) was 100%.
`O=C(Nc1ccc(F)c(C(F)(F)F)c1)c1cccnc1SCc1ccncc1` [1-77, N-(4-Fluoro-3-trifluoromethylphenyl)-2-(4-pyridylmethylthio)pyridine-3-carboxamide] showed an inhibition at 20 µg/mL (stock) of 100%.
Work on `Cc1ccc(NC(=O)c2cccnc2SCc2ccncc2)cc1Cl` [1-78, N-(3-Chloro-4-methylphenyl)-2-(4-pyridylmethylthio)pyridine-3-carboxamide] yielded an inhibition at 20 µg/mL (stock) of 100%.
`Cc1cc(NC(=O)c2cccnc2SCc2ccncc2)ccc1Cl` [1-79, N-(4-Chloro-3-methylphenyl)-2-(4-pyridylmethylthio)pyridine-3-carboxamide] gave an inhibition at 20 µg/mL (stock) of 100%.
`O=C(Nc1cc(F)cc(C(F)(F)F)c1)c1cccnc1SCc1ccncc1` [1-83, N-(3-Fluoro-5-trifluoromethylphenyl)-2-(4-pyridylmethylthio)pyridine-3-carboxamide] was tested, and the inhibition at 20 µg/mL (stock) was 100%.
`O=C(Nc1cc(Cl)cc(Cl)c1)c1cccnc1SCc1ccncc1` [1-84, N-(3,5-Dichlorophenyl)-2-(4-pyridylmethylthio)pyridine-3-carboxamide] gave an inhibition at 20 µg/mL (stock) of 100%.
`COc1cc(OC)c(NC(=O)c2cccnc2SCc2ccncc2)cc1Cl` [1-85, N-(5-Chloro-2,4-dimethoxyphenyl)-2-(4-pyridylmethylthio)pyridine-3-carboxamide] gave an inhibition at 20 µg/mL (stock) of 95%.
With `O=C(Nc1cccc(Cl)c1)c1ccccc1SCc1ccncc1` [1-90, N-(3-Chlorophenyl)-2-(4-pyridylmethylthio)benzamide] the inhibition at 20 µg/mL (stock) was 100%.
`CN(C)c1ccc(NC(=O)c2ccccc2SCc2ccncc2)cc1` [1-91, N-(4-Dimethylaminophenyl)-2-(4-pyridylmethylthio)benzamide] showed an inhibition at 20 µg/mL (stock) of 100%.
With `CC(C)c1cccc(NC(=O)c2ccccc2SCc2ccncc2)c1` [1-92, N-(3-Isopropylphenyl)-2-(4-pyridylmethylthio)benzamide] the inhibition at 20 µg/mL (stock) was 100%.
In the case of `COc1ccc(NC(=O)c2ccccc2SCc2ccncc2)cc1OC` [1-93, N-(3,4-Dimethoxyphenyl)-2-(4-pyridylmethylthio)benzamide], the inhibition at 20 µg/mL (stock) is reported as 72%.
`O=C(Nc1cnc2ccccc2c1)c1ccccc1SCc1ccncc1` [1-95, 2-(4-Pyridylmethylthio)-N-(3-quinolyl)benzamide] was tested, and the inhibition at 20 µg/mL (stock) was 100%.
Work on `COc1cc(OC)c(NC(=O)c2ccccc2SCc2ccncc2)cc1Cl` [1-102, N-(5-Chloro-2,4-dimethoxyphenl)-2-(4-pyridylmethylthio)benzamide] yielded an inhibition at 20 µg/mL (stock) of 55%.
With `Cc1cc(NC(=O)c2ccccc2SCc2ccncc2)ccc1Br` [1-111, N-(4-Bromo-3-methylphenyl)-2-(4-pyridylmethylthio)benzamide] the inhibition at 20 µg/mL (stock) was 100%.
`Cc1cc(NC(=O)c2cccnc2SCc2ccncc2)ccc1OC(F)(F)F` [1-175, N-(3-Methyl-4-trifluoromethoxyphenyl)-2-(4-pyridylmethylthio)pyridine-3-carboxamide] was tested, and the inhibition at 20 µg/mL (stock) was 100%.
With `O=C(Nc1cc2ccccc2cn1)c1ccccc1SCc1ccncc1` [1-209, N-(3-Isoquinolyl)-2-(4-pyridylmethylthio)benzamide] the inhibition at 20 µg/mL (stock) was 99%.
`Cc1cc(C)cc(NC(=O)c2cccnc2SCc2ccnc(F)c2)c1` [1-213, N-(3,5-Dimethylphenyl)-2-(2-fluoropyridin-4-ylmethylthio)pyridine-3-carboxamide] showed an inhibition at 20 µg/mL (stock) of 100%.
In the case of `O=C(Nc1ccc(OC(F)(F)F)cc1)c1cccnc1SCc1ccnc(F)c1` [1-214, 2-(2-Fluoropyridin-4-ylmethylthio)-N-(4-trifluoromethoxyphenyl)pyridine-3-carboxamide], the inhibition at 20 µg/mL (stock) is reported as 92%.
`O=C(Nc1ccc2c(c1)CCC2)c1cccnc1SCc1ccnc(F)c1` [1-215, 2-(2-Fluoropyridin-4-ylmethylthio)-N-(5-indanyl)pyridine-3-carboxamide] showed an inhibition at 20 µg/mL (stock) of 100%.
`O=C(Nc1ccc2c(c1)CCC2)c1cccnc1SCc1ccnc(Cl)c1` [1-216, 2-(2-Chloropyridin-4-ylmethylthio)-N-(5-indanyl)pyridine-3-carboxamide] was tested, and the inhibition at 20 µg/mL (stock) was 100%.
`Cc1cc(C)cc(NC(=O)c2cccnc2SCc2ccnc(Cl)c2)c1` [1-226, 2-(2-Chloropyridin-4-ylmethylthio)-N-(3,5-dimethylphenyl)pyridine-3-carboxamide] showed an inhibition at 20 µg/mL (stock) of 100%.
In the case of `O=C(Nc1ccc(OC(F)(F)F)cc1)c1cccnc1SCc1ccnc(Cl)c1` [1-227, 2-(2-Chloropyridin-4-ylmethylthio)-N-(4-trifluoromethoxyphenyl)pyridine-3-carboxamide], the inhibition at 20 µg/mL (stock) is reported as 60%.
Compound `Cc1cc(C)cc(NC(=O)c2cccnc2SCc2ccncc2Cl)c1` [1-228, 2-(3-Chloropyridin-4-ylmethylthio)-N-(3,5-dimethylphenyl)pyridine-3-carboxamide] has an inhibition at 20 µg/mL (stock) of 100%.
With `CSc1cc(CSc2ncccc2C(=O)Nc2cc(C)cc(C)c2)ccn1` [1-231, N-(3,5-Dimethylphenyl)-2-(2-methylthiopyridin-4-ylmethylthio)pyridine-3-carboxamide] the inhibition at 20 µg/mL (stock) was 100%.
`CSc1cc(CSc2ncccc2C(=O)Nc2ccc(Cl)cc2)ccn1` [1-232, N-(4-Chlorophenyl)-2-(2-methylthiopyridin-4-ylmethylthio)pyridine-3-carboxamide] gave an inhibition at 20 µg/mL (stock) of 75%.
Work on `Cc1cc(C)cc(NC(=O)c2cccnc2SCc2ccnc(C#N)c2)c1` [1-236, 2-(2-Cyanopyridin-4-ylmethylthio)-N-(3,5-dimethylphenyl)pyridine-3-carboxamide] yielded an inhibition at 20 µg/mL (stock) of 100%.
`CCOC(=O)c1cc(CSc2ncccc2C(=O)Nc2cc(C)cc(C)c2)ccn1` [1-241, N-(3,5-dimethylphenyl)-2-(2-ethoxycarbonylpyridin-4-ylmethylthio)pyridine-3-carboxamide] showed an inhibition at 20 µg/mL (stock) of 96%.
`CC(C)Oc1ccc(NC(=O)c2sccc2SCc2ccncc2)cc1` [1-246, N-(4-Isopropoxyphenyl)-3-(4-pyridylmethylthio)thiophene-2-carboxamide] showed an inhibition at 20 µg/mL (stock) of 76%.
